# Test results from ChEMBL document CHEMBL1268951, “Polyamide amino acids trimers as TAR RNA ligands and anti-HIV agents” (Bioorg Med Chem, 2010).
# Active and inactive are the calls of the source. The rule behind the calls is not given here. Where a SMILES comes first, the peptide text is derived from it.
# Test: Inhibition of HIV1 Tat/TAR interaction at 1 to 400 uM by FRET based competition assay
row,inhibition,Structure (SMILES)
1,Active,NCCCC[C@H](NC(=O)CN(CCNC(=O)[C@@H](N)Cc1ccccc1)C(=O)[C@H](CCCCNC(=O)OCc1ccccc1)NC(=O)OCc1ccccc1)C(=O)O
2,Active,C[C@H](N)C(=O)NCCN(CC(=O)N[C@@H](Cc1ccccc1)C(=O)O)C(=O)[C@H](Cc1ccccc1)NC(=O)OCc1ccccc1
3,Active,N[C@@H](Cc1ccccc1)C(=O)NCCN(CC(=O)N[C@@H](Cc1ccccc1)C(=O)O)C(=O)[C@H](Cc1ccccc1)NC(=O)OCc1ccccc1
4,Active,NCCCC[C@H](N)C(=O)NCCN(CC(=O)N[C@@H](Cc1ccccc1)C(=O)O)C(=O)[C@H](Cc1ccccc1)NC(=O)OCc1ccccc1
5,Active,N=C(N)NCCC[C@H](N)C(=O)NCCN(CC(=O)N[C@@H](Cc1ccccc1)C(=O)O)C(=O)[C@H](Cc1ccccc1)NC(=O)OCc1ccccc1
6,Active,C[C@H](N)C(=O)NCCN(CC(=O)N[C@@H](CCCCN)C(=O)O)C(=O)[C@H](CCCCNC(=O)OCc1ccccc1)NC(=O)OCc1ccccc1
7,Active,NCCCC[C@H](NC(=O)CN(CCNC(=O)[C@@H](N)CCCCN)C(=O)[C@H](CCCCNC(=O)OCc1ccccc1)NC(=O)OCc1ccccc1)C(=O)O
8,Active,N=C(N)NCCC[C@H](N)C(=O)NCCN(CC(=O)N[C@@H](CCCCN)C(=O)O)C(=O)[C@H](CCCCNC(=O)OCc1ccccc1)NC(=O)OCc1ccccc1
9,Active,C[C@H](N)C(=O)NCCN(CC(=O)N[C@@H](CCCNC(=N)N)C(=O)O)C(=O)[C@H](CCCN(C(=N)NC(=O)OCc1ccccc1)C(=O)OCc1ccccc1)NC(=O)OCc1ccccc1
10,Active,N=C(N)NCCC[C@H](NC(=O)CN(CCNC(=O)[C@@H](N)Cc1ccccc1)C(=O)[C@H](CCCN(C(=N)NC(=O)OCc1ccccc1)C(=O)OCc1ccccc1)NC(=O)OCc1ccccc1)C(=O)O
11,Active,N=C(N)NCCC[C@H](NC(=O)CN(CCNC(=O)[C@@H](N)CCCCN)C(=O)[C@H](CCCN(C(=N)NC(=O)OCc1ccccc1)C(=O)OCc1ccccc1)NC(=O)OCc1ccccc1)C(=O)O
12,Active,N=C(N)NCCC[C@H](NC(=O)CN(CCNC(=O)[C@@H](N)CCCNC(=N)N)C(=O)[C@H](CCCN(C(=N)NC(=O)OCc1ccccc1)C(=O)OCc1ccccc1)NC(=O)OCc1ccccc1)C(=O)O
13,Active,C[C@H](N)C(=O)NCCN(CC(=O)N[C@@H](C)C(=O)O)C(=O)[C@H](C)NC(=O)OCc1ccccc1
14,Active,C[C@H](NC(=O)CN(CCNC(=O)[C@@H](N)Cc1ccccc1)C(=O)[C@H](C)NC(=O)OCc1ccccc1)C(=O)O
15,Active,C[C@H](NC(=O)CN(CCNC(=O)[C@@H](N)CCCCN)C(=O)[C@H](C)NC(=O)OCc1ccccc1)C(=O)O
16,Active,C[C@H](NC(=O)CN(CCNC(=O)[C@@H](N)CCCNC(=N)N)C(=O)[C@H](C)NC(=O)OCc1ccccc1)C(=O)O

row,inhibition,Structure (SMILES)
1,Active,C[C@H](NC(=O)[C@@H](N)CCCNC(=N)N)C(=O)N[C@@H](CCCCN)C(=O)O (H-Arg-Ala-Lys-OH)
2,Active,N=C(N)NCCC[C@H](NC(=O)[C@H](CCCNC(=N)N)NC(=O)[C@@H](N)CCCNC(=N)N)C(=O)O (H-Arg-Arg-Arg-OH)
3,Active,N=C(N)NCCC[C@H](NC(=O)[C@@H](N)CCCNC(=N)N)C(=O)N[C@@H](CCCCN)C(=O)O (H-Arg-Arg-Lys-OH)
4,Active,N=C(N)NCCC[C@H](NC(=O)[C@H](CCCCN)NC(=O)[C@@H](N)CCCNC(=N)N)C(=O)O (H-Arg-Lys-Arg-OH)
5,Active,N=C(N)NCCC[C@H](N)C(=O)N[C@@H](CCCCN)C(=O)N[C@@H](CCCCN)C(=O)O (H-Arg-Lys-Lys-OH)
6,Active,N=C(N)NCCC[C@H](NC(=O)[C@H](Cc1ccccc1)NC(=O)[C@@H](N)CCCNC(=N)N)C(=O)O (H-Arg-Phe-Arg-OH)
7,Active,N=C(N)NCCC[C@H](N)C(=O)N[C@@H](Cc1ccccc1)C(=O)N[C@@H](CCCCN)C(=O)O (H-Arg-Phe-Lys-OH)
8,Active,C[C@H](NC(=O)[C@H](C)NC(=O)[C@@H](N)CCCCN)C(=O)O (H-Lys-Ala-Ala-OH)
9,Active,C[C@H](NC(=O)[C@H](CCCCN)NC(=O)[C@@H](N)CCCCN)C(=O)O (H-Lys-Lys-Ala-OH)
10,Active,C[C@H](NC(=O)[C@@H](N)Cc1ccccc1)C(=O)N[C@@H](Cc1ccccc1)C(=O)O (H-Phe-Ala-Phe-OH)
11,Active,N=C(N)NCCC[C@H](NC(=O)[C@@H](N)Cc1ccccc1)C(=O)N[C@@H](CCCCN)C(=O)O (H-Phe-Arg-Lys-OH)
12,Active,N=C(N)NCCC[C@H](NC(=O)[C@@H](N)Cc1ccccc1)C(=O)N[C@@H](Cc1ccccc1)C(=O)O (H-Phe-Arg-Phe-OH)
13,Active,NCCCC[C@H](NC(=O)[C@H](CCCCN)NC(=O)[C@@H](N)Cc1ccccc1)C(=O)O (H-Phe-Lys-Lys-OH)
14,Active,NCCCC[C@H](NC(=O)[C@@H](N)Cc1ccccc1)C(=O)N[C@@H](Cc1ccccc1)C(=O)O (H-Phe-Lys-Phe-OH)
15,Active,NCCCC[C@H](NC(=O)[C@H](Cc1ccccc1)NC(=O)[C@@H](N)Cc1ccccc1)C(=O)O (H-Phe-Phe-Lys-OH)
16,Active,N[C@@H](Cc1ccccc1)C(=O)N[C@@H](Cc1ccccc1)C(=O)N[C@@H](Cc1ccccc1)C(=O)O (H-Phe-Phe-Phe-OH)

row,Structure (SMILES),inhibition
1,C[C@H](NC(=O)[C@H](Cc1ccccc1)NC(=O)[C@@H](N)CCCCN)C(=O)O (H-Lys-Phe-Ala-OH),Active
